Test [1] has as its target T1, AChE from electric eel (Electrophorus electricus, UniProt O42275).
T1 construct: purchased Sigma, St. Louis, MO, USA
The test is described as follows: biochemical. To be noted: mean ± SD, n = three experiments; 25 °C, PBS pH 7.4, substrate ATCh 40 μM.

Test [2] deals with T2, BChE from equine serum (Equus caballus, UniProt P81908).
T2 construct: BChE (from equine serum); purchased Sigma, St. Louis, MO, USA; host or cells: equine serum
Briefly: In vitro BChE inhibition, modified Ellman's method. Format: biochemical. To be noted: for SI (index selectivity) = IC50 (AChE)/IC50 (BChE): higher value = higher selectivity to BChE.

T2 sequence (P81908 whole entry): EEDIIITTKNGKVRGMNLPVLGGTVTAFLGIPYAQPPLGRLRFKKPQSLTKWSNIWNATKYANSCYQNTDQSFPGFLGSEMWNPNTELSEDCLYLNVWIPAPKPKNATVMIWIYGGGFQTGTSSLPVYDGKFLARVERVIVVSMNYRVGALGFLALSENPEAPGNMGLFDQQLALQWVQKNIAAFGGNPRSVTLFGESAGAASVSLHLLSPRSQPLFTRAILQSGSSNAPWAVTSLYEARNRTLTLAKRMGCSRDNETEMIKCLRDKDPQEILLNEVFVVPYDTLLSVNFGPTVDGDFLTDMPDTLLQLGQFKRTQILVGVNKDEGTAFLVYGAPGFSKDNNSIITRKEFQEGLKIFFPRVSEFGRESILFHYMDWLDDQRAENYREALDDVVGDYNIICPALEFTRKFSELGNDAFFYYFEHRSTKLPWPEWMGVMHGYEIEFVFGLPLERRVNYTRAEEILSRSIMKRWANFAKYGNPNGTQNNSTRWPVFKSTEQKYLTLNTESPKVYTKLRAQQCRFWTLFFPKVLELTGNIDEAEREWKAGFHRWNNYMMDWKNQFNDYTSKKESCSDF
T1 sequence (O42275 24-633): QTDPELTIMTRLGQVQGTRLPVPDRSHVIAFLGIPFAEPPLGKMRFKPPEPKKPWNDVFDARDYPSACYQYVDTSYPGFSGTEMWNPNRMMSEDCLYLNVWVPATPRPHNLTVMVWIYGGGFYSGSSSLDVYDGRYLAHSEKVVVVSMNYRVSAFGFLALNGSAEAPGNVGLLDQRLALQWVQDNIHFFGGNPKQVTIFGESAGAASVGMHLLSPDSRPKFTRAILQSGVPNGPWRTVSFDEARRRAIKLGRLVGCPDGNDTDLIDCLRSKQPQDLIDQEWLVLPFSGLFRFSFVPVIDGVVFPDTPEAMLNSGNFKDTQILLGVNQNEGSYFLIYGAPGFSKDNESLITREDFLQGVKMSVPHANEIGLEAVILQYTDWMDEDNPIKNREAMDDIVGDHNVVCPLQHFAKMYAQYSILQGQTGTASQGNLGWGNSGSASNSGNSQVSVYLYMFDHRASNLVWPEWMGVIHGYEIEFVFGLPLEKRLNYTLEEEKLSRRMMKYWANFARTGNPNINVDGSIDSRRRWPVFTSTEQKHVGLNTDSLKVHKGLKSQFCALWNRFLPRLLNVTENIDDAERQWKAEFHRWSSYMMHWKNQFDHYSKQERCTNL

For `COC(=O)N(C)C(C)C(=O)c1ccc(Br)cc1` (stereo not drawn) [Compound 9, Methyl (1-(4-bromophenyl)-1-oxopropan-2-yl)(methyl)carbamate], the IC50 in test [1] stood at 282.7 ± 0.71 µM. Also, in test [2], the midpoint of inhibition, the IC50, lay at 224.1 ± 2.19 µM and the “SI (index selectivity) = IC50 (AChE)/IC50 (BChE)” value (from here on “SI (index selectivity) = IC50”) worked out at 1.26.
The like results for `CCC(C(=O)c1ccccc1)N(C)C(=O)Oc1ccccc1` (stereo not drawn) [Compound 12, Phenyl methyl(1-oxo-1-phenylbutan-2-yl)carbamate] were, in that order, 179 ± 6.21 µM, 53 ± 1.06 µM and 3.38.
The like results for `CCC(C(=O)c1ccccc1)N(CC)C(=O)OC` (stereo not drawn) [Compound 3, Methyl ethyl(1-oxo-1-phenylbutan-2-yl)carbamate] were, in that order, 273.7 ± 2.16 µM, 363 ± 7.41 µM and 0.75.
The like results for `CC(C(=O)c1cccc(Cl)c1)N(C)C(=O)OCc1ccccc1` (stereo not drawn) [Compound 28, Benzyl (1-(3-chlorophenyl)-1-oxopropan-2-yl)(methyl)carbamate] were, in that order, 84.4 ± 2.27 µM, 5.51 ± 0.2 µM and 15.31.
Regarding `COC(=O)N(C)C(C)C(=O)c1cccc2ccccc12` (stereo not drawn) [Compound 35], the IC50 in test [1] came out at 127 ± 1.74 µM; in test [2], 150 ± 7.13 µM. Moreover, the “SI (index selectivity) = IC50” value in test [2] was determined as 0.84.
In test [1], `CCC(C(=O)c1ccccc1)N(C)C(=O)OCc1ccccc1` (stereo not drawn) [Compound 24, Benzyl methyl(1-oxo-1-phenylbutan-2-yl)carbamate] came in with an IC50 of 104 ± 2.91 µM. Moreover, in test [2], the IC50 worked out at 21.4 ± 0.26 µM and the “SI (index selectivity) = IC50” value is 4.87.
The like results for `CC(C(=O)c1ccc(Cl)cc1)N(C)C(=O)OCc1ccccc1` (stereo not drawn) [Compound 31, Benzyl (1-(4-chlroophenyl)-1-oxopropan-2-yl)(methyl)carbamate] were, in that order, 52.83 ± 0.34 µM, 7.02 ± 0.15 µM and 7.53.
Compound `CC(C(=O)c1cccc2ccccc12)N(C)C(=O)OCc1ccccc1` (stereo not drawn) [Compound 39, Benzyl methyl(1-(naphthalen-1-yl)-1-oxopropan-2-yl)carbamate] gave an IC50 in test [1] of 105.2 ± 0.99 µM. Further, in test [2], inhibition was half-maximal at 18.94 ± 0.18 µM (IC50) and the “SI (index selectivity) = IC50” value stood at 5.55.
The like results for `CC(C(=O)c1cccc2ccccc12)N(C)C(=O)Oc1ccccc1` (stereo not drawn) [Compound 36] were, in that order, 99.6 ± 5.88 µM, 12.7 ± 0.19 µM and 7.83.
The like results for `CC(C(=O)c1ccc(Br)c2ccccc12)N(C)C(=O)Oc1ccccc1` (stereo not drawn) [Compound 38, Phenyl (1-(4-bromonaphthalen-1-yl)-1-oxopropan-2-yl)(methyl)carbamate] were, in that order, 61.7 ± 1.42 µM, 13 ± 0.28 µM and 4.76.
In the case of `Cc1ccc(C(=O)C(C)N(C)C(=O)Oc2ccccc2)cc1C` (stereo not drawn) [Compound 21, Phenyl (1-(3,4-dimethylphenyl)-1-oxopropan-2-yl)(methyl)carbamate], the midpoint of inhibition in test [1], the IC50, lay at 47.9 ± 2.09 µM. Further, in test [2], half-maximal inhibition (IC50) required 26.41 ± 0.05 µM and the “SI (index selectivity) = IC50” value stood at 1.82.
The like results for `COC(=O)N(C)C(C)C(=O)c1cccc(C)c1` (stereo not drawn) [Compound 4, Methyl methyl(1-oxo-1-(m-tolyl)propan-2-yl)carbamate] were, in that order, 134 ± 2.3 µM, 116 ± 2.16 µM and 1.16.
The like results for `CC(C(=O)c1ccc(Br)cc1)N(C)C(=O)OCc1ccccc1` (stereo not drawn) [Compound 32, Benzyl (1-(4-bromophenyl)-1-oxopropan-2-yl)(methyl)carbamate] were, in that order, 32 ± 0.54 µM, 11.3 ± 0.15 µM and 2.84.
In test [1], `Cc1ccc(C(=O)C(C)N(C)C(=O)Oc2ccccc2)cc1` (stereo not drawn) [Compound 18, Phenyl methyl(1-oxo-1-(p-tolyl)propan-2-yl)carbamate] returned an IC50 of 139 ± 1.45 µM. Besides, in test [2], the IC50 is 87.6 ± 2.37 µM and the “SI (index selectivity) = IC50” value is reported as 1.58.
The like results for `CC(C(=O)c1ccc(Br)cc1)N(C)C(=O)Oc1ccccc1` (stereo not drawn) [Compound 20, Phenyl (1-(4-bromophenyl)-1-oxopropan-2-yl)(methyl)carbamate] were, in that order, 51.5 ± 1.38 µM, 44.1 ± 1.71 µM and 1.17.
The like results for `CCC(C(=O)c1ccccc1)N(C)C(=O)OC` (stereo not drawn) [Compound 2, Methyl methyl(1-oxo-1-phenylbutan-2-yl)carbamate] were, in that order, 329 ± 9.72 µM, 441 ± 7.54 µM and 0.75.
`Cc1cccc(C(=O)C(C)N(C)C(=O)OCc2ccccc2)c1` (stereo not drawn) [Compound 27, Benzyl methyl(1-oxo-1-(m-tolyl)propan-2-yl)carbamate] had an IC50 in test [1] of 83.3 ± 2.49 µM. Moreover, in test [2], half-maximal inhibition (IC50) required 12.5 ± 0.24 µM and the “SI (index selectivity) = IC50” value is listed as 6.67.
The like results for `COC(=O)N(C)C(C)C(=O)c1ccc(C)cc1` (stereo not drawn) [Compound 7, Methyl methyl(1-oxo-1-(p-tolyl)propan-2-yl)carbamate] were, in that order, 50.6 ± 0.63 µM, 181 ± 12 µM and 0.28.
In test [1], `COC(=O)N(C)C(C)C(=O)c1ccc(Cl)cc1` (stereo not drawn) [Compound 8, Methyl (1-(4-chlorophenyl)-1-oxopropan-2-yl)(methyl)carbamate] displayed an IC50 of 309 ± 6.16 µM. Besides, in test [2], the midpoint of inhibition, the IC50, lay at 132 ± 4.55 µM and the “SI (index selectivity) = IC50” value is reported as 2.35.
The like results for `COC(=O)N(C)C(C)C(=O)c1ccc(OC)cc1` (stereo not drawn) [Compound 6, Methyl (1-(4-methoxyphenyl)-1-oxopropan-2-yl)(methyl)carbamate] were, in that order, 147 ± 1.51 µM, 186.6 ± 1.55 µM and 0.79.
The like results for `Cc1cccc(C(=O)C(C)N(C)C(=O)Oc2ccccc2)c1` (stereo not drawn) [Compound 15, Phenyl methyl(1-oxo-1-(m-tolyl)propan-2-yl)carbamate] were, in that order, 166 ± 2.75 µM, 48.29 ± 0.31 µM and 3.43.
The like results for `CC(C(=O)c1ccc2c(c1)OCO2)N(C)C(=O)OCc1ccccc1` (stereo not drawn) [Compound 34, Benzyl (1-(benzo[d][1,3]dioxol-5-yl)-1-oxopropan-2-yl)(methyl)carbamate] were, in that order, 75.6 ± 1.25 µM, 51.9 ± 1.18 µM and 1.46.
In test [1], `CC(C(=O)c1ccc(Cl)c2ccccc12)N(C)C(=O)Oc1ccccc1` (stereo not drawn) [Compound 37, Phenyl (1-(4-chloronaphthalen-1-yl)-1-oxopropan-2-yl)(methyl)carbamate] had a 50% inhibitory concentration (IC50) of 30.6 ± 1.57 µM. In test [2], half-maximal inhibition (IC50) required 13.5 ± 0.47 µM and the “SI (index selectivity) = IC50” value is 2.26.
Turning to `CCC(C(=O)c1ccccc1)N(CC)C(=O)Oc1ccccc1` (stereo not drawn) [Compound 13, Phenyl ethyl(1-oxo-1-phenylbutan-2-yl)carbamate], the IC50 in test [1] worked out at 95.7 ± 5.37 µM. Also, in test [2], the midpoint of inhibition, the IC50, lay at 15.62 ± 0.06 µM and the “SI (index selectivity) = IC50” value stood at 6.13.
The like results for `CCN(C(=O)Oc1ccccc1)C(C)C(=O)c1ccccc1` (stereo not drawn) [Compound 11, Phenyl ethyl(1-oxo-1-phenylpropan-2-yl)carbamate] were, in that order, 167 ± 1.75 µM, 27.6 ± 0.55 µM and 6.03.
The like results for `CC(C(=O)c1ccc2c(c1)OCO2)N(C)C(=O)Oc1ccccc1` (stereo not drawn) [Compound 22, Phenyl (1-(benzo[d][1,3]dioxol-5-yl)-1-oxopropan-2-yl)(methyl)carbamate] were, in that order, 84 ± 0.43 µM, 53.6 ± 0.72 µM and 1.57.
The like results for `Cc1ccc(C(=O)C(C)N(C)C(=O)OCc2ccccc2)cc1C` (stereo not drawn) [Compound 33, Benzyl (1-(3,4-dimethylphenyl)-1-oxopropan-2-yl)(methyl)carbamate] were, in that order, 76.8 ± 2.76 µM, 16.9 ± 0.22 µM and 4.55.
In turn, `CCCC(C(=O)c1ccccc1)N(C)C(=O)OCc1ccccc1` (stereo not drawn) [Compound 26, Benzyl methyl(1-oxo-1-phenylpentan-2-yl)carbamate] registered a concentration for half-maximal inhibition (IC50) in test [1] of 134.7 ± 0.7 µM. Further, in test [2], the IC50 was determined as 16.3 ± 0.17 µM and the “SI (index selectivity) = IC50” value was 8.26.
The like results for `CCN(C(=O)OC)C(C)C(=O)c1ccccc1` (stereo not drawn) [Compound 1, Methyl ethyl(1-oxo-1-phenylpropan-2-yl)carbamate] were, in that order, 245.3 ± 0.75 µM, 227.9 ± 0.9 µM and 1.08.
The like results for `COC(=O)N(C)C(C)C(=O)c1ccc2c(c1)OCO2` (stereo not drawn) [Compound 10, Methyl (1-(benzo[d][1,3]dioxol-5-yl)-1-oxopropan-2-yl)(methyl)carbamate] were, in that order, 225 ± 2.72 µM, 194.9 ± 1.93 µM and 1.16.
For `COc1ccc(C(=O)C(C)N(C)C(=O)OCc2ccccc2)cc1` (stereo not drawn) [Compound 29, Benzyl (1-(4-methoxyphenyl)-1-oxopropan-2-yl)(methyl)carbamate], the IC50 in test [1] was 62.6 ± 0.65 µM. For the same compound, in test [2], it took 57.39 ± 0.02 µM to reach half-maximal inhibition (IC50) and the “SI (index selectivity) = IC50” value is 1.09.
The like results for `CC(C(=O)c1ccc(Br)c2ccccc12)N(C)C(=O)OCc1ccccc1` (stereo not drawn) [Compound 41, Benzyl (1-(4-bromonaphthalen-1-yl)-1-oxopropan-2-yl)(methyl)carbamate] were, in that order, 128.3 ± 0.88 µM, 236 ± 16.3 µM and 0.54.
The like results for `Cc1ccc(C(=O)C(C)N(C)C(=O)OCc2ccccc2)cc1` (stereo not drawn) [Compound 30, Benzyl methyl(1-oxo-1-(p-tolyl)propan-2-yl)carbamate] were, in that order, 40.06 ± 0.01 µM, 26.4 ± 0.4 µM and 1.52.

The record behind these values is PMC6479915, “Novel Benzene-Based Carbamates for AChE/BChE Inhibition: Synthesis and Ligand/Structure-Oriented SAR Study” (International Journal of Molecular Sciences, 2019).
